# Results published in patent US20060223849A1, “Benzazole derivatives, compositions, and methods of use as beta-secretase inhibitors” (priority 2005, published 2006).
# Test system: HEK293 cells stably expressing wildtype human APP695 protein (HEK-APPwt cells)
# Assay: Aβ cell based assay (Aβ1-40 secretion, ELISA)
# Conditions: 1 hr room temperature then five-hour incubation at 37° C., Aβ1-40 ELISA, DAPT as 100% inhibition reference, read-out: EC50, reduction of Aβ1-40 secretion in the cell based assay
# Method: Aβ Cell Based Assay Procedure
# In the following assay, the proteolytic activity of BACE in cells exposed to varying concentrations of a compound of interest is measured by observing the amount of Aβ1-40 secreted from HEK293 cells (Human Embryonic Kidney epithelial cell line) stably expressing either wildtype human APP695 protein (HEK-APPwt cells).
# HEK-APPwt cells were grown in high glucose DMEM (Dulbecco's Modified Eagles Medium) with 4500 mg glucose/L,L-glutamine, NaHCO3, pyrdoxin HCl, 10 mM HEPES (4-(2-hydroxyethyl)-1-piperazineethanesulfonic acid) (pH 7.4), 0.1 mM NEAA (Non-essential Amino Acids) (GIBCO Cat#11140-050), 10% fetal bovine serum and 250 μg/ml hygromycin in T-225 flasks at 37° C. with CO2 and humidity control.
# Test compounds were initially prepared in DMSO and diluted with DMEM media containing 2% FBS (Fetal bovine serum) and 0.05% Tween20. Ten standard compound solutions were prepared having a range of concentrations. The standard compound solutions were used to determine the EC50 of the test compound. The range of concentrations chosen may depend on the compound's predicted potency.
# To prepare the cells for the assay, a flask containing HEK-APPwt cells were trypsinized briefly (1 mL trypsin), and once the cells detached, 4 mL of 10% FBS-DMEM was added to the flask. The detached cells were centrifuged at 900 rpm for 5 min to form a pellet.
# The HEK-APPwt cell pellet was re-suspended with 10 mL DMEM media containing 2% FBS. 80 μL of the cell suspension was added to each well of a 96-well cell culture plate to give 100,000 cells/well. 10 μL of a standard compound solution was added to each well of the 96-well cell culture plate followed by 10 μL of Alamar blue solution. The cells were incubated at room temperature for 1 hr, followed by a five-hour incubation in the CO2 incubator at 37° C.
# At the end of the incubation, the plates were removed from incubator, and the supernatant was collected. Aβ1-40 concentration in the medium was measured by using a commercial Aβ1-40 ELISA kit (IBL, Japan). Briefly, the ELISA plates were coated with anti-human Aβ35-40 mouse IgG monoclonal antibody. A horseradish peroxidase enzyme conjugated anti-human Aβ11-28 mouse IgG monoclone antibody was used for detection. The cell culture supernatant was diluted 1:4 fold with (EIA buffer+Protease inhibitor (buffer containing Protease Inhibitor (1 mL PI/30 mL buffer). A 100 μL aliquot of the diluted supernatant was added to each well of the ELISA plate and incubated for 6 hrs at 4° C. The ELISA plate was washed 8 times with phosphate buffered saline (PBS) containing 0.05% Tween 20.
# A 100 μL of detection antibody was then added and incubated for 1 hour at 4° C. The plate was washed 8 times with PBS buffer containing 0.05% Tween 20 followed by addition of 100 μL of the substrate with the chromogen tetramethyl benzidine (TMB). The plate was incubated in the dark at room temperature for about 30 min and a stop solution (1N H2SO4) was added.
# The intensity of the color developed was measured at 450 nm. The optical density at 450 nm (OD450) is proportional to the concentration of human Aβ1-40 secreted by the cell. As a reference, N—[N-(3,5-difluorophenacetyl-L-alanyl)]-S-phenylglycine t-butyl ester (DAPT, a γ-secretase inhibitor) was used to indicate 100% inhibition of BACE activity. Thus, the assay measures the ability of a compound of interest to reduce Aβ1-40 secretion. Compound potency was reported as the EC50 by calculating the percent inhibition at all concentration levels and the data were fit with non-linear curve fitting algorithm using in GraphPad Prism.
row,Structure (SMILES),EC50
1,"COc1cc2ccnc(C(=O)Nc3nc4c(C(=O)Nc5ncc[nH]5)cccc4[nH]3)c2cc1OC [Example 289, 6,7-dimethoxy-isoquinoline-1-carboxylic acid [4-(1H-imidazol-2-ylcarbamoyl)-1H-benzoimidazol-2-yl]-amide]",≤ 2000 nM
2,"O=C(Nc1nc2c(C(=O)Nc3ncc[nH]3)cccc2[nH]1)c1cccc(C#CC2CC2)n1 [Example 439, Ar = 6-(Cyclopropylethynyl)-pyridine-2-yl]",≤ 2000 nM
3,"O=C(Nc1nc2cccc(C(=O)Nc3ncc[nH]3)c2[nH]1)c1cc2ccccc2cn1 [Example 58, isoquinoline-3-carboxylic acid [4-(1H-imidazol-2-ylcarbamoyl)-1H-benzoimidazol-2-yl]-amide]",≤ 2000 nM
4,"O=C(Nc1nc2c(C(=O)Nc3ncc[nH]3)cccc2[nH]1)c1cccc(C#Cc2ccccc2)n1 [Example 416, 2-[(6-phenylethynyl-pyridine-2-carbonyl)-amino]-1H-benzoimidazole-4-carboxylic acid (1H-imidazol-2-yl)-amide]",≤ 2000 nM
5,"O=C(Nc1nc2c(C(=O)Nc3ncc[nH]3)cccc2[nH]1)c1cccc(-c2ccco2)n1 [Example 355, Ar = 6-(Furan-2-yl)-pyridine-2-yl]",≤ 2000 nM
6,"COc1cc2cnc(C(=O)Nc3nc4c(C(=O)Nc5ncc[nH]5)cccc4[nH]3)cc2cc1OC [Example 312, Ar = 6,7-Dimethoxy-isoquinoline-3-yl]",≤ 2000 nM
7,"COc1ccc2cnc(C(=O)Nc3nc4c(C(=O)Nc5ncc[nH]5)cccc4[nH]3)cc2c1 [Example 294, 6-Methoxy-isoquinoline-3-carboxylic acid [4-(1H-imidazol-2-ylcarbamoyl)-1H-benzoimidazol-2-yl]-amide]",≤ 2000 nM
8,"CS(=O)(=O)c1cccc(C#Cc2cccc(C(=O)Nc3nc4c(C(=O)Nc5ncc[nH]5)cccc4[nH]3)n2)c1 [Example 417, 2-{[6-(3-methanesulfonyl-phenylethynyl)-pyridine-2-carbonyl]-amino}-1H-benzoimidazole-4-carboxylic acid (1H-imidazol-2-yl)-amide]",≤ 2000 nM
9,"COc1ccc2cc(C(=O)Nc3nc4c(C(=O)Nc5ncc[nH]5)cccc4[nH]3)ncc2c1 [Example 296, 7-methoxy-isoquinoline-3-carboxylic acid [4-(1H-imidazol-2-ylcarbamoyl)-1H-benzoimidazol-2-yl]-amide]",≤ 2000 nM
10,"CS(=O)(=O)c1ccc(CNC(=O)c2cc(-c3ccncc3)cc3[nH]c(NC(=O)c4cc5ccccc5cn4)nc23)cc1 [Example 458, isoquinoline-3-carboxylic acid [4-(4-methanesulfonyl-benzylcarbamoyl)-6-pyridin-4-yl-1H-benzoimidazol-2-yl]-amide]",≤ 2000 nM
11,"Cc1nc(NC(=O)c2cccc3[nH]c(NC(=O)c4cc5ccccc5cn4)nc23)[nH]c1C [Example 193, Isoquinoline-3-carboxylic acid [4-(4,5-dimethyl-1H-imidazol-2-ylcarbamoyl)-1H-benzoimidazol-2-yl]-amide]",≤ 2000 nM
12,"O=C(Nc1ncc[nH]1)c1ccc2[nH]c(NC(=O)c3cc4ccccc4cn3)nc2c1 [Example 140, isoquinoline-3-carboxylic acid [5-(1H-imidazol-2-ylcarbamoyl)-1H-benzoimidazol-2-yl]-amide]",≤ 2000 nM
13,"O=C(Nc1nc2c(C(=O)Nc3ncc[nH]3)cccc2[nH]1)c1nccc2ccccc12 [Example 311, Ar = Isoquinoline-1-yl]",≤ 2000 nM
14,"N#Cc1cccc(-c2cccc(C(=O)Nc3nc4c(C(=O)Nc5ncc[nH]5)cccc4[nH]3)n2)c1 [Example 343, 2-{[6-(3-cyano-phenyl)-pyridine-2-carbonyl]-amino}-1H-benzoimidazole-4-carboxylic acid (1H-imidazol-2-yl)-amide]",≤ 2000 nM
15,"CN1CCc2nc(NC(=O)c3cccc4[nH]c(NC(=O)c5cc6ccccc6cn5)nc34)sc2C1 [Example 212, Isoquinoline-3-carboxylic acid [4-(5-methyl-4,5,6,7-tetrahydro-thiazolo[5,4-c]pyridin-2-ylcarbamoyl)-1H-benzoimidazol-2-yl]-amide]",≤ 2000 nM
16,"CC(C)(C)C#Cc1cccc(C(=O)Nc2nc3c(C(=O)Nc4ncc[nH]4)cccc3[nH]2)n1 [Example 428, Ar = 6-(3,3-Dimethyl-but-1-ynyl)-pyridine-2-yl]",≤ 2000 nM
17,"COc1ccc(CNC(=O)c2cccc3nc(NC(=O)c4cc5ccccc5cn4)[nH]c23)cc1 [Example 165, Isoquinoline-3-carboxylic acid [7-(4-methoxy-benzylcarbamoyl)-1H-benzoimidazol-2-yl]-amide]",≤ 2000 nM
18,"Cc1nc(C(=O)Nc2nc3c(C(=O)Nc4ncc[nH]4)cccc3[nH]2)cc2ccccc12 [Example 300, 1-methyl-isoquinoline-3-carboxylic acid [4-(1H-imidazol-2-ylcarbamoyl)-1H-benzoimidazol-2-yl]-amide]",≤ 2000 nM
19,"O=C(Nc1nc2c(C(=O)Nc3ncc[nH]3)cccc2[nH]1)c1cncc(-c2cccc(F)c2)c1 [Example 351, Ar = 5-(3-Fluoro-phenyl)-pyridine-3-yl]",≤ 2000 nM
20,"Cn1ccnc1CN1CCc2nc(NC(=O)c3cccc4[nH]c(NC(=O)c5cc6ccccc6cn5)nc34)sc2C1 [Example 247, Isoquinoline-3-carboxylic acid {4-[5-(1-methyl-1H-imidazol-2-ylmethyl)-4,5,6,7-tetrahydro-thiazolo[5,4-c]pyridin-2-ylcarbamoyl]-1H-benzoimidazol-2-yl}-amide]",≤ 2000 nM
21,"CCOc1cc(C(=O)Nc2ncc[nH]2)c2[nH]c(NC(=O)c3cc4ccccc4cn3)nc2c1 [Example 472, isoquinoline-3-carboxylic acid [5-ethoxy-7-(1H-imidazol-2-ylcarbamoyl)-1H-benzoimidazol-2-yl]-amide]",≤ 2000 nM
22,"O=C(Nc1nc2c(C(=O)Nc3nc4c(s3)CNCC4)cccc2[nH]1)c1cc2ccccc2cn1 [Example 198, isoquinoline-3-carboxylic acid [7-(4,5,6,7-tetrahydro-thiazolo[5,4-c]pyridin-2-ylcarbamoyl)-1H-benzoimidazol-2-yl]-amide]",≤ 2000 nM
23,"CS(=O)(=O)c1ccc(CNC(=O)c2cccc3[nH]c(NC(=O)c4cc5ccccc5cn4)nc23)cc1 [Example 155, isoquinoline-3-carboxylic acid [4-(4-methanesulfonyl-benzylcarbamoyl)-1H-benzoimidazol-2-yl]-amide]",≤ 2000 nM
24,"O=C(Nc1nc2c(C(=O)Nc3ncc[nH]3)cccc2[nH]1)c1cncc(C#Cc2ccccc2)c1 [Example 414, 2-[(5-phenylethynyl-pyridine-3-carbonyl)-amino]-1H-benzoimidazole-4-carboxylic acid (1H-imidazol-2-yl)-amide]",≤ 2000 nM
25,"CCS(=O)(=O)c1cc(C(=O)Nc2ncc[nH]2)c2[nH]c(NC(=O)c3cc4ccccc4cn3)nc2c1 [Example 491, isoquinoline-3-carboxylic acid [5-ethanesulfonyl-7-(1H-imidazol-2-ylcarbamoyl)-1H-benzoimidazol-2-yl]-amide]",≤ 2000 nM
26,"O=C(Nc1nc2c(C(=O)Nc3ncc[nH]3)cccc2[nH]1)c1cc2cc3c(cc2cn1)OCCO3 [Example 318, Ar = 2,3-Dihydro-[1,4]dioxino[2,3-g]isoquinoline-8-yl]",≤ 2000 nM
27,"COc1ccc(CCNC(=O)c2cccc3nc(NC(=O)c4cc5ccccc5cn4)[nH]c23)cc1 [Example 176, Isoquinoline-3-carboxylic acid {7-[2-(4-methoxy-phenyl)-ethylcarbamoyl]-1H-benzoimidazol-2-yl}-amide]",≤ 2000 nM
28,"O=C(Nc1nc2c(C(=O)Nc3ncc[nH]3)cccc2[nH]1)c1cccc(C#Cc2cccnc2)n1 [Example 434, Ar = 6-(Pyridin-3-ylethynyl)-pyridine-2-yl]",≤ 2000 nM
